{"source": "ChEMBL document CHEMBL1275437", "about": "“Prevalence of serotype 19A Streptococcus pneumoniae among isolates from U.S. children in 2005-2006 and activity of faropenem” (2008)", "key": {"[1]": {"tested_on": "Streptococcus pneumoniae", "experiment": "Antibacterial activity against Streptococcus pneumoniae serotype 15A by broth microdilution method in presence of clavulanate", "assay_type": "functional"}, "[2]": {"tested_on": "Streptococcus pneumoniae", "experiment": "Antibacterial activity against Streptococcus pneumoniae serotype 33 by broth microdilution method in presence of clavulanate", "assay_type": "functional"}, "[3]": {"tested_on": "Streptococcus pneumoniae", "experiment": "Antibacterial activity against Streptococcus pneumoniae serotype 22 by broth microdilution method in presence of clavulanate", "assay_type": "functional"}, "[4]": {"tested_on": "Streptococcus pneumoniae", "experiment": "Antibacterial activity against Streptococcus pneumoniae serotype 19A assessed as percent susceptible isolates by broth microdilution method in presence of clavulanate", "assay_type": "functional"}, "[5]": {"tested_on": "Streptococcus pneumoniae", "experiment": "Antibacterial activity against Streptococcus pneumoniae serotype 6A/C assessed as percent susceptible isolates by broth microdilution method in presence of clavulanate", "assay_type": "functional"}, "[6]": {"tested_on": "Streptococcus pneumoniae", "experiment": "Antibacterial activity against Streptococcus pneumoniae serotype 3 assessed as percent susceptible isolates by broth microdilution method in presence of clavulanate", "assay_type": "functional"}, "[7]": {"tested_on": "Streptococcus pneumoniae", "experiment": "Antibacterial activity against Streptococcus pneumoniae serotype 19F assessed as percent susceptible isolates by broth microdilution method in presence of clavulanate", "assay_type": "functional"}, "[8]": {"tested_on": "Streptococcus pneumoniae", "experiment": "Antibacterial activity against Streptococcus pneumoniae serotype 35B assessed as percent susceptible isolates by broth microdilution method in presence of clavulanate", "assay_type": "functional"}, "[9]": {"tested_on": "Streptococcus pneumoniae", "experiment": "Antibacterial activity against Streptococcus pneumoniae serotype 23A assessed as percent susceptible isolates by broth microdilution method in presence of clavulanate", "assay_type": "functional"}, "[10]": {"tested_on": "Streptococcus pneumoniae", "experiment": "Antibacterial activity against Streptococcus pneumoniae serotype 15A assessed as percent susceptible isolates by broth microdilution method in presence of clavulanate", "assay_type": "functional"}, "[11]": {"tested_on": "Streptococcus pneumoniae", "experiment": "Antibacterial activity against Streptococcus pneumoniae serotype 33 assessed as percent susceptible isolates by broth microdilution method in presence of clavulanate", "assay_type": "functional"}, "[12]": {"tested_on": "Streptococcus pneumoniae", "experiment": "Antibacterial activity against Streptococcus pneumoniae serotype 22 assessed as percent susceptible isolates by broth microdilution method in presence of clavulanate", "assay_type": "functional"}, "[13]": {"tested_on": "Streptococcus pneumoniae", "experiment": "Antibacterial activity against Streptococcus pneumoniae serotype 19A assessed as percent resistant isolates by broth microdilution method in presence of clavulanate", "assay_type": "functional"}, "[14]": {"tested_on": "Streptococcus pneumoniae", "experiment": "Antibacterial activity against Streptococcus pneumoniae serotype 6A/C assessed as percent resistant isolates by broth microdilution method in presence of clavulanate", "assay_type": "functional"}, "[15]": {"tested_on": "Streptococcus pneumoniae", "experiment": "Antibacterial activity against Streptococcus pneumoniae serotype 3 assessed as percent resistant isolates by broth microdilution method in presence of clavulanate", "assay_type": "functional"}, "[16]": {"tested_on": "Streptococcus pneumoniae", "experiment": "Antibacterial activity against Streptococcus pneumoniae serotype 19F assessed as percent resistant isolates by broth microdilution method in presence of clavulanate", "assay_type": "functional"}, "[17]": {"tested_on": "Streptococcus pneumoniae", "experiment": "Antibacterial activity against Streptococcus pneumoniae serotype 35B assessed as percent resistant isolates by broth microdilution method in presence of clavulanate", "assay_type": "functional"}, "[18]": {"tested_on": "Streptococcus pneumoniae", "experiment": "Antibacterial activity against Streptococcus pneumoniae serotype 23A assessed as percent resistant isolates by broth microdilution method in presence of clavulanate", "assay_type": "functional"}, "[19]": {"tested_on": "Streptococcus pneumoniae", "experiment": "Antibacterial activity against Streptococcus pneumoniae serotype 15A assessed as percent resistant isolates by broth microdilution method in presence of clavulanate", "assay_type": "functional"}, "[20]": {"tested_on": "Streptococcus pneumoniae", "experiment": "Antibacterial activity against Streptococcus pneumoniae serotype 33 assessed as percent resistant isolates by broth microdilution method in presence of clavulanate", "assay_type": "functional"}, "[21]": {"tested_on": "Streptococcus pneumoniae", "experiment": "Antibacterial activity against Streptococcus pneumoniae serotype 22 assessed as percent resistant isolates by broth microdilution method in presence of clavulanate", "assay_type": "functional"}, "[22]": {"tested_on": "Streptococcus pneumoniae", "experiment": "Antibacterial activity against Streptococcus pneumoniae serotype 19A by broth microdilution method in presence of clavulanate", "assay_type": "functional"}, "[23]": {"tested_on": "Streptococcus pneumoniae", "experiment": "Antibacterial activity against Streptococcus pneumoniae serotype 6A/C by broth microdilution method in presence of clavulanate", "assay_type": "functional"}, "[24]": {"tested_on": "Streptococcus pneumoniae", "experiment": "Antibacterial activity against Streptococcus pneumoniae serotype 3 by broth microdilution method in presence of clavulanate", "assay_type": "functional"}, "[25]": {"tested_on": "Streptococcus pneumoniae", "experiment": "Antibacterial activity against Streptococcus pneumoniae serotype 19F by broth microdilution method in presence of clavulanate", "assay_type": "functional"}, "[26]": {"tested_on": "Streptococcus pneumoniae", "experiment": "Antibacterial activity against Streptococcus pneumoniae serotype 35B by broth microdilution method in presence of clavulanate", "assay_type": "functional"}, "[27]": {"tested_on": "Streptococcus pneumoniae", "experiment": "Antibacterial activity against Streptococcus pneumoniae serotype 23A by broth microdilution method in presence of clavulanate", "assay_type": "functional"}, "[28]": {"experiment": "T>MIC in mouse neutropenic thigh infection model infected with multidrug-resistant Streptococcus pneumoniae", "assay_type": "functional, Thigh muscle"}, "[29]": {"tested_on": "Streptococcus pneumoniae", "experiment": "Antibacterial activity against Streptococcus pneumoniae serotype 19A by broth microdilution method", "assay_type": "functional"}, "[30]": {"tested_on": "Streptococcus pneumoniae", "experiment": "Antibacterial activity against Streptococcus pneumoniae serotype 6A/C by broth microdilution method", "assay_type": "functional"}, "[31]": {"tested_on": "Streptococcus pneumoniae", "experiment": "Antibacterial activity against Streptococcus pneumoniae serotype 3 by broth microdilution method", "assay_type": "functional"}, "[32]": {"tested_on": "Streptococcus pneumoniae", "experiment": "Antibacterial activity against Streptococcus pneumoniae serotype 19F by broth microdilution method", "assay_type": "functional"}, "[33]": {"tested_on": "Streptococcus pneumoniae", "experiment": "Antibacterial activity against Streptococcus pneumoniae serotype 35B by broth microdilution method", "assay_type": "functional"}, "[34]": {"tested_on": "Streptococcus pneumoniae", "experiment": "Antibacterial activity against Streptococcus pneumoniae serotype 23A by broth microdilution method", "assay_type": "functional"}, "[35]": {"tested_on": "Streptococcus pneumoniae", "experiment": "Antibacterial activity against Streptococcus pneumoniae serotype 15A by broth microdilution method", "assay_type": "functional"}, "[36]": {"tested_on": "Streptococcus pneumoniae", "experiment": "Antibacterial activity against Streptococcus pneumoniae serotype 33 by broth microdilution method", "assay_type": "functional"}, "[37]": {"tested_on": "Streptococcus pneumoniae", "experiment": "Antibacterial activity against Streptococcus pneumoniae serotype 22 by broth microdilution method", "assay_type": "functional"}, "[38]": {"tested_on": "Streptococcus pneumoniae", "experiment": "Antibacterial activity against multidrug-resistant Streptococcus pneumoniae infected in mouse neutropenic thigh infection model", "assay_type": "functional", "settings": "Thigh muscle"}, "[39]": {"tested_on": "Streptococcus pneumoniae", "experiment": "Antibacterial activity against non-multidrug-resistant Streptococcus pneumoniae", "assay_type": "functional"}, "[40]": {"experiment": "T>MIC in mouse prophylaxis model infected with Bacillus anthracis", "assay_type": "functional"}, "[41]": {"tested_on": "Streptococcus pneumoniae", "experiment": "Antibacterial activity against multidrug-resistant Streptococcus pneumoniae", "assay_type": "functional"}}, "data": [{"smiles": "CC1(C)S[C@@H]2[C@H](NC(=O)[C@H](N)c3ccc(O)cc3)C(=O)N2[C@H]1C(=O)O", "note": "[AMOXICILLIN]", "values": [{"measurement": "MIC90", "setting": "[1]", "value": 0.25, "unit": "µg/mL"}, {"measurement": "MIC90", "setting": "[2]", "value": "≤ 0.12", "unit": "µg/mL"}, {"measurement": "MIC90", "setting": "[3]", "value": "≤ 0.12", "unit": "µg/mL"}, {"measurement": "% susceptible isolates", "setting": "[4]", "value": 62, "unit": "%"}, {"measurement": "% susceptible isolates", "setting": "[5]", "value": 97, "unit": "%"}, {"measurement": "% susceptible isolates", "setting": "[6]", "value": 100, "unit": "%"}, {"measurement": "% susceptible isolates", "setting": "[7]", "value": 47, "unit": "%"}, {"measurement": "% susceptible isolates", "setting": "[8]", "value": 100, "unit": "%"}, {"measurement": "% susceptible isolates", "setting": "[9]", "value": 100, "unit": "%"}, {"measurement": "% susceptible isolates", "setting": "[10]", "value": 100, "unit": "%"}, {"measurement": "% susceptible isolates", "setting": "[11]", "value": 100, "unit": "%"}, {"measurement": "% susceptible isolates", "setting": "[12]", "value": 100, "unit": "%"}, {"measurement": "% resistant isolates", "setting": "[13]", "value": 35, "unit": "%"}, {"measurement": "% resistant isolates", "setting": "[14]", "value": 3, "unit": "%"}, {"measurement": "% resistant isolates", "setting": "[15]", "value": 0, "unit": "%"}, {"measurement": "% resistant isolates", "setting": "[16]", "value": 48, "unit": "%"}, {"measurement": "% resistant isolates", "setting": "[17]", "value": 0, "unit": "%"}, {"measurement": "% resistant isolates", "setting": "[18]", "value": 0, "unit": "%"}, {"measurement": "% resistant isolates", "setting": "[19]", "value": 0, "unit": "%"}, {"measurement": "% resistant isolates", "setting": "[20]", "value": 0, "unit": "%"}, {"measurement": "% resistant isolates", "setting": "[21]", "value": 0, "unit": "%"}, {"measurement": "MIC90", "setting": "[22]", "value": 8, "unit": "µg/mL"}, {"measurement": "MIC90", "setting": "[23]", "value": 1, "unit": "µg/mL"}, {"measurement": "MIC90", "setting": "[24]", "value": "≤ 0.12", "unit": "µg/mL"}, {"measurement": "MIC90", "setting": "[25]", "value": 16, "unit": "µg/mL"}, {"measurement": "MIC90", "setting": "[26]", "value": 2, "unit": "µg/mL"}, {"measurement": "MIC90", "setting": "[27]", "value": 0.25, "unit": "µg/mL"}]}, {"smiles": "C[C@@H](O)[C@H]1C(=O)N2C(C(=O)O)=C([C@H]3CCCO3)S[C@H]12", "note": "[FAROPENEM]", "values": [{"measurement": "fT>MIC", "setting": "[28]", "value": 13.9, "unit": "%"}, {"measurement": "MIC90", "setting": "[29]", "value": 1, "unit": "µg/mL"}, {"measurement": "MIC90", "setting": "[30]", "value": 0.25, "unit": "µg/mL"}, {"measurement": "MIC90", "setting": "[31]", "value": 0.015, "unit": "µg/mL"}, {"measurement": "MIC90", "setting": "[32]", "value": 1, "unit": "µg/mL"}, {"measurement": "MIC90", "setting": "[33]", "value": 0.5, "unit": "µg/mL"}, {"measurement": "MIC90", "setting": "[34]", "value": 0.06, "unit": "µg/mL"}, {"measurement": "MIC90", "setting": "[35]", "value": 0.12, "unit": "µg/mL"}, {"measurement": "MIC90", "setting": "[36]", "value": 0.015, "unit": "µg/mL"}, {"measurement": "MIC90", "setting": "[37]", "value": 0.015, "unit": "µg/mL"}, {"measurement": "MIC90", "setting": "[38]", "value": "> 2", "unit": "µg/mL"}, {"measurement": "MIC90", "setting": "[39]", "value": 0.25, "unit": "µg/mL"}, {"measurement": "fT>MIC", "setting": "[40]", "value": 16.4, "unit": "%"}, {"measurement": "MIC90", "setting": "[41]", "value": 2, "unit": "µg/mL"}]}]}
